According to patent publication US20140322161A1, “ANTI-IL-6 VACCINE COMPOSITION” (PEPTINOV SAS, priority 2011, published 2014):
Bridges are numbered along the chain shown (N, C = ends). BDB = bisdiazonium-benzidine, coupling agent to KLH; Gluta = glutaraldehyde, coupling agent to KLH

Key:
[1] = molecular target: hIL-6 (Homo sapiens, UniProt P05231); experiment: Human IL-6 neutralization test on HEK293 cells (hIL-6 receptor, SEAP reporter) with purified IgGs from immunized rabbits; format: cell-based; settings: purified IgGs from rabbits immunized with 100 μg of the peptide
Method: New Zealand rabbits free from specific pathogenic organisms (n=1 per peptide) were immunized with 100 μg of peptides hP1, hP2, hP3, hP4 and hP6 derived from human IL-6 by five immunizations with CFA/IFA on D0, D14, D28, D56 and J70. The neutralizing ability of the purified IgGs, derived from the serum of each rabbit, was tested in a human IL-6 neutralization test. This test is carried out on HEK293 cells (Human Embryonic Kidney cells) transfected with the gene encoding the human IL-6 receptor and the secreted embryonic alkaline phosphatase (SEAP) reporter gene (Supplier: Invivogen). The latter is then secreted in a dose-dependent manner in response to the human IL-6.
Plating (D0): seed a flat-bottom 96-well plate, treated for cell culture with 50,000 cells per well in 100 μL of neutralization medium. (DMEM 4.5 g/L glucose, 10% v/v FCS, 2 mM L-Glutamine, 100 U/mL Penicillin/Streptomycin, 100 μg/mL of Normocin).
In parallel a so-called “pre-incubation” plate is prepared with the desired concentration of human IL-6, rabbit antibodies and commercial anti-hIL-6 antibodies used as a positive control, all in a final volume of 200 μL of neutralization medium.
The pre-incubation plate is left at 37° C. for 2 hours. 100 μL per well is then transferred to the corresponding wells of the plate containing the cells, then the latter is incubated with 5% CO2 at 37° C. for 24 hours.
Development (D1): Fill a flat-bottom 96-well plate with 180 μL per well of QUANTI-Blue (InVivoGen, CA, USA). Add 20 μL of supernatant from the plate treated with IL-6. Incubate with 5% CO2 at 37° C. for 3 hours. Determine the quantity of secreted alkaline phosphatase using a spectrophotometer set at 620 nm.

[2] = molecular target: T1, murine IL-6 (Mus musculus, UniProt P08505); experiment: Murine IL-6 neutralization test on murine B9 hybridomas with purified IgGs from immunized rabbits; format: cell-based; settings: purified IgGs from rabbits immunized with the peptide; B9 hybridoma proliferation, XTT
T1 sequence (P08505 25-211): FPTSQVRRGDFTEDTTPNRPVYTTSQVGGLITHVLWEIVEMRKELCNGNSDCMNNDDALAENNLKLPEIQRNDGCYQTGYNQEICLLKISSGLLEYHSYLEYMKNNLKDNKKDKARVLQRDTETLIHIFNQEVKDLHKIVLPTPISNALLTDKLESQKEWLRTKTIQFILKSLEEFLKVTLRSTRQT
Method: The neutralizing ability of purified IgGs based on serum from rabbits immunized with the peptides mP1, mP2, mP3, mP4, mP5 and mP6 respectively, was tested in a murine IL-6 neutralization test. This test is based on the fact that murine B9 hybridomas proliferate in a dose-dependent manner in response to murine IL-6 (Brakenhoff et al. (1987) J. Immunol. 139:4116-21).
Plating (D0): seed a flat-bottom 96-well plate, treated for cell culture with 5000 cells per well in 50 μL of neutralization medium. (RPMI 1640 without phenol red, 5% v/v Foetal Calf Serum (FCS), 2 mM L-Glutamine, 100 U/mL Penicillin/Streptomycin, […] of β-Mercaptoethanol)
In parallel a so-called “pre-incubation” plate is produced with the desired concentration of murine IL-6, samples and commercial anti-mIL-6 antibodies used as positive control, all in a final volume of 100 μL of neutralization medium.
The pre-incubation plate is left at 37° C. for 2 hours. 50 μL per well is then transferred to the corresponding wells of the plate containing the cells, then the latter is incubated with 5% CO2 at 37° C. for 96 hours.
Development (D4): Add 50 μL of a solution of XTT (for 2,3-bis-(2-methoxy-4-nitro-5-sulfophenyl)-2H-tetrazolium-5-carboxanilide)—0.5% electron coupling reagent to each well. Leave to incubate at 37° C. for 7 hours. Reading of the optical density on a spectrophotometer set at 450 nm.

[3] = tested on: C57BL/6 mice; experiment: Murine model of chronic colitis induced by DSS after vaccination; format: in vivo; settings: for histological colitis score: D67 colon distal biopsies, compared with control mice treated with PBS or KLH alone, FIG. 3; for disease activity index (DAI) / reduction of the length of the colon: DSS-treated C57BL/6 mice; for disease activity index (DAI): 100 μg peptide coupled with KLH, compared with the control groups, FIG. 2; for reduction of the length of the colon: compared with control mice, FIG. 4
Excerpt: Chronic colitis induced by Dextran Sodium Sulfate (DSS) is a well-known model of chronic inflammatory disease reproducing the main characteristics of the human diseases (Alex et al. (2009) Inflamm. Bowel Dis. 15:341-352).
Briefly, groups of 6 C57BL/6 mice (Charles River Laboratories, L'Arbresle, France) were formed. The mice were immunized 4 times (once with CFA and three times with IFA) every 15 days with different vaccine preparations. The mice were respectively immunized with PBS (DSS/PBS group), 50 μg per mouse of KLH (DSS/KLH group), and 100 μg per mouse of peptide mP1, mP2, mP3, mP4, mP5 and mP6 coupled with KLH (DSS/mIL-6 peptide group). A control H2O group was also included. Four days after the first booster, colitis was induced by absorption of Dextran Sodium Sulfate (DSS) in water (2%) over 7 days followed by 7 days of water. Three DSS/water cycles were thus carried out, after which the mice received water until the end of the protocol. The clinical signs of the disease appear approximately on the fifth day after the start of treatment with DSS (D26 of the protocol). The development of the disease is measured from the start of the first DSS cycle up to the end of the protocol by a disease activity index (DAI) including weight loss, the presence of blood in the stools and the texture of the stools. The clinical scores are determined as follows: for the texture of the stools a score of 0 (hard stools) to 4 (diarrhoea), for the presence of blood in the stools a score of 0 (absence) to 4 (macroscopic blood), and weight loss a score of 0 (<1%) to 4 (>20%). Each mouse is thus assigned a clinical score with a maximum score of 12.
Then, on D67, the mice are killed by cervical dislocation. The histological sections from colon distal biopsies are scored blind, according to the severity of the inflammation (0: absence, 1: slight, 2: moderate, 3: severe), the extent of the inflammation (0: absence, 1: mucosal, 2: mucosal and sub-mucosal, 3: transmural), crypt damage (0: absence, 1: one-third damaged, 2: ⅔ damaged, 3: only the surface of the epithelium intact, 4: total destruction of the crypts and epithelium). Each mouse is thus assigned a histological score with a maximum score of 10.

hIL-6, sequence (P05231 30-212): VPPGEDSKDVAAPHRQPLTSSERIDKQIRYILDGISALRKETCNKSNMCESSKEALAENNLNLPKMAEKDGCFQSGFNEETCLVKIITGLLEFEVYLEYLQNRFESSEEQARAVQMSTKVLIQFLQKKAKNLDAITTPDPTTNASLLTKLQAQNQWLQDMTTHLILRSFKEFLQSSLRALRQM

Substance | neutralization of the biological activity of human IL-6 [1] | neutralization of the biological activity of murine IL-6 [2] | histological colitis score [3] | disease activity index (DAI) [3] | reduction of the length of the colon [3]
Acetyl +T177KCQAQNQWLQDM189C-Y-BDB (Ac-TKCQAQNQWLQDMCY-{BDB}; disulfide 3-14 (inferred)) [hP6, peptide derived from hIL-6 region 177-189] | neutralize the biological activity of the human IL-6 in a dose-dependent manner |  |  |  | 
Acetyl+CN154QEVKDLHKIVLPTP168C-Y-BDB [mP5] |  | do not neutralize the activity of murine IL-6 |  |  | 
Acetyl+D176KCESQKEWLRTK188C-Y-BDB [mP6] |  | neutralize the biological activity of murine IL-6 in a dose-dependent manner | significantly reduced histological score | significantly reduced disease activity index | significantly less severe reduction of the colon
BDB-Y-CE125FMKNNLKDNKKDKAR140C+Amide [mP4] |  | neutralize the biological activity of murine IL-6 in a dose-dependent manner | significantly reduced histological score | significantly reduced disease activity index | significantly less severe reduction of the colon
BDB-Y-CE127FLQNRFESSEEQAR141C+ Amide ({BDB}-YCEFLQNRFESSEEQARC-NH2; disulfide 2-18 (inferred)) [hP4, peptide derived from hIL-6 region 127-141] | neutralize the biological activity of the human IL-6 in a dose-dependent manner |  |  |  | 
BDB-Y-E61IVEMRKELCNGNSD75C+Amide ({BDB}-YEIVEMRKELCNGNSDC-NH2; disulfide 11-17 (inferred)) [mP1, peptide derived from mIL-6 region 61-75] |  | neutralize the biological activity of murine IL-6 in a dose-dependent manner | significantly reduced histological score | significantly reduced disease activity index | significantly less severe reduction of the colon
BDB-Y-G63ISALRKETCNKSNMC78+Amide ({BDB}-YGISALRKETCNKSNMC-NH2; disulfide 11-17 (inferred)) [hP1, peptide derived from hIL-6 region 63-78] | neutralize the biological activity of the human IL-6 in a dose-dependent manner |  |  |  | 
Gluta-C99YQTGYNQEIC109+Amide (Gluta-CYQTGYNQEIC-NH2; disulfide 1-11 (inferred)) [mP3, peptide derived from mIL-6 region 99-109] |  | neutralize the biological activity of murine IL-6 in a dose-dependent manner | significantly reduced histological score | significantly reduced disease activity index | significantly less severe reduction of the colon
Gluta-C101FQSGFNEETC111 +Amide (Gluta-CFQSGFNEETC-NH2; disulfide 1-11 (inferred)) [hP3, peptide derived from hIL-6 region 101-111] | neutralize the biological activity of the human IL-6 in a dose-dependent manner |  |  |  | 
